Data from patent publication US8623859B2, “Bradykinin B1 antagonists” (Evotec AG, priority 2008, dated 2014).
Counter-ions that a name gives are not always drawn.

Target: T1, human B1 (Homo sapiens, UniProt P46663)
T1 construct: host or cells: CHO-K1
T1 sequence (P46663 1-353): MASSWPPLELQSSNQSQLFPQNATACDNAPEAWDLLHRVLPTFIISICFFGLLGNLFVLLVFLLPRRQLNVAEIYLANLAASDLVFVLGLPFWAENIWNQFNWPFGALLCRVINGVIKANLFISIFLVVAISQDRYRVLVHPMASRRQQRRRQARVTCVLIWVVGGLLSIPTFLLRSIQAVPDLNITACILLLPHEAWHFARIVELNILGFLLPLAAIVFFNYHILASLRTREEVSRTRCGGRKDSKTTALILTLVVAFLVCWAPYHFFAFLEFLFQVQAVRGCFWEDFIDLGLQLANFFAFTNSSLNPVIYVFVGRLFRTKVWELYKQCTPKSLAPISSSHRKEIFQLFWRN
Experiment: Calcium flux assay for Bradykinin B1 antagonist, CHO-K1 cell line expressing human B1
Assay type: cell-based
Conditions: CHO-K1 cells expressing human B1, agonist Lys-(Des-Arg)-Bradykinin, read-out: Potency (IC50 value against human B1)
Summary of the method: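 Inhibition of B1 agonist-evoked intracellular Ca2+ rise was followed by continuous fluorescence at 538 nm, with integrated, background-normalized signals plotted versus log compound concentration. Test compounds (eight 10-fold dilutions, triplicate, 1% DMSO final) were added 30 min at 25° C beforehand to Fluo-4AM-loaded human B1 CHO-K1 cells in pH 7.4 assay buffer.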

Compound	IC50 [nM]
COc1cc(C)c(S(=O)(=O)N(C)Cc2cc(C(=O)N3CCN(CCN4CCOCC4)CC3)co2)c(C)c1 [Ex 35, 4-methoxy-N,2,6-trimethyl-N-[(4-{[4-(2-morpholin-4-ylethyl)piperazin-1-yl]carbonyl}furan-2-yl)methyl]benzenesulfonamide]	100 to 1000
COc1cc(C)c(S(=O)(=O)N(C)Cc2nc(C(=O)N(C)Cc3ccc(CN4CCC(NC(C)=O)C4)cc3)co2)c(C)c1 (centres unmarked) [Ex 170, N-(4-{[3-(Acetylamino)pyrrolidin-1-yl]methyl}benzyl)-2-({[(4-methoxy-2,6-dimethylphenyl)sulfonyl](methyl)amino}methyl)-N-methyl-1,3-oxazole-4-carboxamide]	10 to 100
COc1cc(C)c(S(=O)(=O)N(C)Cc2nnc(C(=O)N(C)Cc3nc(CN4CCCC4)cs3)o2)c(C)c1 [Ex 286, 5-({[(4-Methoxy-2,6-dimethylphenyl)sulfonyl](methyl)amino}methyl)-N-methyl-N-{[4-(pyrrolidin-1-ylmethyl)-1,3-thiazol-2-yl]methyl}-1,3,4-oxadiazole-2-carboxamide]	100 to 1000
COc1cc(C)c(S(=O)(=O)N(C)Cc2cc(C(=O)N(C)Cc3ccc(C4=NCC(C)(C)CN4)cc3)co2)c(C)c1 [Ex 40, N-[4-(5,5-dimethyl-1,4,5,6-tetrahydropyrimidin-2-yl)benzyl]-5-({[(4-methoxy-2,6-dimethylphenyl)sulfonyl](methyl)amino}methyl)-N-methylfuran-3-carboxamide]	100 to 1000
COc1cc(C)c(S(=O)(=O)N(C)Cc2noc(C(=O)N3CCN(CCCN4CCCC4)CC3)n2)c(C)c1 [Ex 304, 4-Methoxy-N,2,6-trimethyl-N-[(5-{[4-(3-pyrrolidin-1-ylpropyl)piperazin-1-yl]carbonyl}-1,2,4-oxadiazol-3-yl)methyl]benzenesulfonamide trifluoroacetamide]	100 to 1000
CCc1cc(Br)ccc1S(=O)(=O)N(C)Cc1cc(C(=O)NCc2cccc(CN3CCCC3)c2)co1 [Ex 16, 5-({[(4-bromo-2-ethylphenyl)sulfonyl](methyl)amino}methyl)-N-[3-(pyrrolidin-1-ylmethyl)benzyl]furan-3-carboxamide]	100 to 1000
COc1cc(C)c(S(=O)(=O)N(Cc2cc(C(=O)N(C)Cc3ccc(CN4CCC(NC(C)=O)C4)cc3)co2)C2CC2)c(C)c1 (centres unmarked) [Ex 146, N-(4-{[3-(Acetylamino)pyrrolidin-1-yl]methyl}benzyl)-5-({cyclopropyl[(4-methoxy-2,6-dimethylphenyl)sulfonyl]amino}methyl)-N-methylfuran-3-carboxamide]	100 to 1000
COc1cc(C)c(S(=O)(=O)N(C)Cc2noc(C(=O)N(C)Cc3ccc(CN4CCCC4)cc3)n2)c(C)c1 [Ex 300, 3-({[(4-Methoxy-2,6-dimethylphenyl)sulfonyl](methyl)amino}methyl)-N-methyl-N-[4-(pyrrolidin-1-ylmethyl)benzyl]-1,2,4-oxadiazole-5-carboxamide trifluoroacetamide]	< 10
COc1cc(C)c(S(=O)(=O)N(Cc2nc(C(=O)N3CCC(C4CCNCC4)CC3)co2)C2CC2)c(C)c1 [Ex 239, N-{[4-(4,4′-Bipiperidin-1-ylcarbonyl)-1,3-oxazol-2-yl]methyl}-N-cyclopropyl-4-methoxy-2,6-dimethylbenzenesulfonamide trifluoroacetate]	100 to 1000
COc1cc(C)c(S(=O)(=O)N(Cc2nc(C(=O)N3CCC(c4ccncc4)CC3)co2)C2CC2)c(C)c1 [Ex 231, N-Cyclopropyl-4-methoxy-2,6-dimethyl-N-({4-[(4-pyridin-4-ylpiperidin-1-yl)carbonyl]-1,3-oxazol-2-yl}methyl)benzenesulfonamide]	10 to 100
COc1cc(C)c(S(=O)(=O)N(Cc2noc(C(=O)N3CCC(CCN4CCCC4)CC3)n2)C2CC2)c(C)c1 [Ex 312, N-Cyclopropyl-4-methoxy-2,6-dimethyl-N-[(5-{[4-(2-pyrrolidin-1-ylethyl)piperidin-1-yl]carbonyl}-1,2,4-oxadiazol-3-yl)methyl]benzenesulfonamide]	< 10
COc1cc(C)c(S(=O)(=O)N(C)Cc2nnc(C(=O)N3CCN(Cc4ccnc(C)c4)CC3)o2)c(C)c1 [Ex 294, 4-Methoxy-N,2,6-trimethyl-N-{[5-({4-[(2-methylpyridin-4-yl)methyl]piperazin-1-yl}carbonyl)-1,3,4-oxadiazol-2-yl]methyl}benzenesulfonamide]	10 to 100
COc1cc(C)c(S(=O)(=O)N(Cc2nc(C(=O)N3CCN(Cc4cnc5ccccc5c4)CC3)co2)C2CC2)c(C)c1 [Ex 254, N-Cyclopropyl-4-methoxy-2,6-dimethyl-N-[(4-{[4-(quinolin-3-ylmethyl)piperazin-1-yl]carbonyl}-1,3-oxazol-2-yl)methyl]benzenesulfonamide]	< 10
COc1cc(C)c(S(=O)(=O)N(C)Cc2nnc(C(=O)N3CCN(Cc4cccnc4N)CC3)o2)c(C)c1 [Ex 295, N-{[5-({4-[(2-Aminopyridin-3-yl)methyl]piperazin-1-yl}carbonyl)-1,3,4-oxadiazol-2-yl]methyl}-4-methoxy-N,2,6-trimethylbenzenesulfonamide]	< 10
COc1cc(C)c(S(=O)(=O)N(C)Cc2nnc(C(=O)N3CCN(C4CCN(C)CC4)CC3)s2)c(C)c1 [Ex 332, 4-Methoxy-N,2,6-trimethyl-N-[(5-{[4-(1-methylpiperidin-4-yl)piperazin-1-yl]carbonyl}-1,3,4-thiadiazol-2-yl)methyl]benzenesulfonamide trifluoroacetamide]	100 to 1000
CN(Cc1ccc(C2=NCCN2)cc1)C(=O)c1coc(CN(C)S(=O)(=O)c2c(Cl)cccc2Cl)c1 [Ex 23, 5-({[(2,6-dichlorophenyl)sulfonyl](methyl)amino}methyl)-N-[4-(4,5-dihydro-1H-imidazol-2-yl)benzyl]-N-methylfuran-3-carboxamide]	< 10
CCN(Cc1cc(C(=O)N(C)Cc2ccc(C3=NCCN3)cc2)co1)S(=O)(=O)c1c(C)cc(OC)cc1C [Ex 103, N-[4-(4,5-Dihydro-1H-imidazol-2-yl)benzyl]-5-({ethyl[(4-methoxy-2,6-dimethylphenyl)sulfonyl]amino}methyl)-N-methylfuran-3-carboxamide trifluoroacetate]	10 to 100
CN(CCc1ccc(C2=NCCN2)cc1)C(=O)c1coc(CN(C2CC2)S(=O)(=O)c2c(Cl)cc(Br)cc2Cl)c1 [Ex 124, 5-({[(4-Bromo-2,6-dichlorophenyl)sulfonyl](cyclopropyl)amino}methyl)-N-{2-[4-(4,5-dihydro-1H-imidazol-2-yl)phenyl]ethyl}-N-methylfuran-3-carboxamide trifluoroacetate]	< 10
COc1cc(C)c(S(=O)(=O)N(Cc2cc(C(=O)NCc3cc(CN4CCCC4)ccc3F)co2)C2CC2)c(C)c1 [Ex 153, 5-({Cyclopropyl[(4-methoxy-2,6-dimethylphenyl)sulfonyl]amino}methyl)-N-[2-fluoro-5-(pyrrolidin-1-ylmethyl)benzyl]furan-3-carboxamide trifluoroacetate]	100 to 1000
COc1cc(C)c(S(=O)(=O)N(Cc2cc(C(=O)N3CCN(C4CC5CCC(C4)N5C)CC3)co2)C2CC2)c(C)c1 (centres unmarked) [Ex 107, N-Cyclopropyl-4-methoxy-2,6-dimethyl-N-[(4-{[4-(8-methyl-8-azabicyclo[3.2.1]oct-3-yl)piperazin-1-yl]carbonyl}furan-2-yl)methyl]benzenesulfonamide trifluoroacetate]	10 to 100
COc1cc(C)c(S(=O)(=O)N(C)Cc2nc(C(=O)N(C)Cc3ccc(CN4CCCC4)cc3)co2)c(C)c1 [Ex 71, 2({[(4-Methoxy-2,6dimethylphenyl)sulfonyl](methyl)amino}methyl)-N-methyl-N-[4-(pyrrolidin-1-ylmethyl)benzyl]-1,3-oxazole-4-carboxamide]	< 10
COc1cc(C)c(S(=O)(=O)N(Cc2nnc(C(=O)N3CCC(CCN4CCCC4)CC3)s2)C2CC2)c(C)c1 [Ex 337, N-Cyclopropyl-4-methoxy-2,6-dimethyl-N-[(5-{[4-(2-pyrrolidin-1-ylethyl)piperidin-1-yl]carbonyl}-1,3,4-thiadiazol-2-yl)methyl]benzenesulfonamide]	< 10
COc1cc(C)c(S(=O)(=O)N(Cc2nc(C(=O)N(C)CCc3ccc(C4=NCCN4)cc3)co2)C2CC2)c(C)c1 [Ex 79, 2-({Cyclopropyl[(4-methoxy-2,6-dimethylphenyl)sulfonyl]amino}methyl)-N-{2-[4-(4,5-dihydro-1H-imidazol-2-yl)phenyl]ethyl}-N-methyl-1,3-oxazole-4-carboxamide]	< 10
COc1cc(C)c(S(=O)(=O)N(C)Cc2nnc(C(=O)N(C)Cc3ccc(CN4CCC(OC)CC4)cc3)o2)c(C)c1 [Ex 283, 5-({[(4-Methoxy-2,6-dimethylphenyl)sulfonyl](methyl)amino}methyl)-N-{4-[(4-methoxypiperidin-1-yl)methyl]benzyl}-N-methyl-1,3,4-oxadiazole-2-carboxamide]	10 to 100
COc1cc(C)c(S(=O)(=O)N(C)Cc2cc(C(=O)NCc3ccc(CN4CCCCC4C)cc3)co2)c(C)c1 (centres unmarked) [Ex 99, 5-({[(4-Methoxy-2,6-dimethylphenyl)sulfonyl](methyl)amino}methyl)-N-{4-[(2-methylpiperidin-1-yl)methyl]benzyl}furan-3-carboxamide trifluoroacetate]	100 to 1000
COc1cc(C)c(S(=O)(=O)N(C)Cc2cc(C(=O)N(C)Cc3ccc(-c4nccn4C)cc3)co2)c(C)c1 [Ex 43, 5-({[(4-methoxy-2,6-dimethylphenyl)sulfonyl](methyl)amino}methyl)-N-methyl-N-[4-(1-methyl-1H-imidazol-2-yl)benzyl]furan-3-carboxamide]	100 to 1000
